{"source": "paper PMC12849875", "about": "“CYP4X1/sEH‐Dependent Endocannabinoid Metabolism Drives Fibroblast‐Mediated Immunosuppression to Limit Immunotherapy in Colon Cancer” (Advanced Science, 2025)", "key": {"GPR119 [1]": {"target": "T1, GPR119 (Homo sapiens, UniProt Q8TDV5)", "T1 sequence (Q8TDV5 1-335)": "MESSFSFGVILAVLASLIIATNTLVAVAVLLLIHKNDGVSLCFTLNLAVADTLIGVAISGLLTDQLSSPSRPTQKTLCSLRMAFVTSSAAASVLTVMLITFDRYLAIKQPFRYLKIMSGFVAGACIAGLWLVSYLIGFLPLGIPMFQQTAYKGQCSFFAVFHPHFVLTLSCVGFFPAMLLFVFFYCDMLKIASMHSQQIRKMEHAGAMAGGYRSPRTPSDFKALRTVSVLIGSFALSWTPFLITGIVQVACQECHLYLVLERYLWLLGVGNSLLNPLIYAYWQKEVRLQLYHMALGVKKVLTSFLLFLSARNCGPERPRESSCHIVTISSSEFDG", "assay": "cAMP accumulation in heterologous expression system; PathHunter β-arrestin […] recruitment (EC50 =[…])", "type": "cell-based"}, "GPR119 [2]": {"target": "T1, GPR119", "assay": "cAMP accumulation in heterologous expression system, positive control agonist", "type": "cell-based"}}, "data": [{"smiles": "CCCCCC1OC1C/C=C\\C/C=C\\C/C=C\\CCCC(=O)NCCO", "note": "(centres unmarked) [14,15-EET-EA]", "values": [{"measurement": "EC50", "setting": "GPR119 [1]", "value": 3.74, "unit": "µM"}]}, {"smiles": "CCCCCCCC/C=C\\CCCCCCCC(=O)NCCO", "note": "[OEA]", "values": [{"measurement": "cAMP accumulation in heterologous expression system, positive control agonist", "setting": "GPR119 [2]", "value": "OEA, the most potent endogenous agonist of GPR119, was used as the positive control."}]}]}
